Experimental data as given in US20070244154A1, “Substituted Tricyclic Benzimidazoles” (Altana Pharma AG, priority 2004, published 2007).

Legend:
[1] = tested on: pentagastrin-stimulated acid secretion of the perfused rat stomach; test: Secretion-inhibiting action on the perfused rat stomach; details: anesthetized female CD rat, dose 3 μmol/kg i.d. (intraduodenal)
Text: Testing of the Secretion-Inhibiting Action on the Perfused Rat Stomach
In Table A which follows, the influence of the compounds of the formula 1 according to the invention on the pentagastrin-stimulated acid secretion of the perfused rat stomach after intraduodenal admnistation in vivo is shown.
The abdomen of anesthetized rats (CD rat, female, 200-250 g; 1.5 g/kg i.m. urethane) was opened after tracheotomy by a median upper abdominal incision and a PVC catheter was fixed transorally in the esophagus and another via the pylorus such that the ends of the tubes just projected into the gastric lumen. The catheter leading from the pylorus led outward into the right abdominal wall through a side opening.
After thorough rinsing (about 50-100 ml), warm (37° C.) physiological NaCl solution was continuously passed through the stomach (0.5 ml/min, pH 6.8-6.9; Braun-Unita I). The pH (pH meter 632, glass electrode EA 147; φ=5 mm, Metrohm) and, by titration with a freshly prepared 0.01N NaOH solution to pH 7 (Dosimat 665 Metrohm), the secreted HCl were determined in the effluent in each case collected at an internal of 15 minutes.
The gastric secretion was stimulated by continuous infusion of […] (=1.65 ml/h) of i.v. pentagastrin (left femoral vein) about 30 min after the end of the operation (i.e. after determination of 2 preliminary fractions). The substances to be tested were administered intraduodenally in a 2.5 ml/kg liquid volume 60 min after the start of the continuous pentagastrin infusion. The body temperature of the animals was kept at a constant 37.8-38° C. by infrared irradiation and heat pads (automatic, stepless control by means of a rectal temperature sensor).

CCCCO[C@H]1c2c(C(=O)NC)cc3c(nc(C)n3C)c2N[C@H](c2ccccc2)[C@H]1O [Example 3, (6S,7R,8R)-[6-n-butyloxy-6,7,8,9-tetrahydro-7-hydroxy-2,3-dimethyl-8-phenyl-3H-imidazo[4,5-h]quinoline-5-yl]-carboxylic acid methylamide]
inhibition in vivo at 3 µmol/kg [1]: > 15%

Cc1nc2c3c(c(C(=O)N(C)C)cc2n1C)C[C@@H](O)[C@@H](c1ccccc1)N3 [Example 15, (7R,8R)-[7-Hydroxy-2,3-dimethyl-8-phenyl-6,7,8,9-tetrahydro-3H-imidazo[4,5-h]quinoline-5-yl]-carboxylic acid dimethylamide]
inhibition in vivo at 3 µmol/kg [1]: > 15%

CCCCO[C@@H]1c2c(C(=O)N(C)C)cc3c(nc(C)n3C)c2N[C@H](c2ccccc2)[C@H]1O [Example 14, (6R,7R,8R)-[6-n-Butyloxy-7-hydroxy-2,3-dimethyl-8-phenyl-6,7,8,9-tetrahydro-3H-imidazo[4,5-h]quinoline-5-yl]-carboxylic acid dimethylamide]
inhibition in vivo at 3 µmol/kg [1]: > 15%

CCCCO[C@H]1c2c(C(=O)N(C)C)cc3c(nc(C)n3C)c2N[C@H](c2ccccc2)[C@H]1O [Example 13, (6S,7R,8R)-[6-n-Butyloxy-7-hydroxy-2,3-dimethyl-8-phenyl-6,7,8,9-tetrahydro-3H-imidazo[4,5-h]quinoline-5-yl]-carboxylic acid dimethylamide]
inhibition in vivo at 3 µmol/kg [1]: > 15%

C#CCO[C@H]1c2c(C(=O)NC)cc3c(nc(C)n3C)c2N[C@H](c2ccccc2)[C@H]1O [Example 7, (6S,7R,8R)-[6,7,8,9-Tetrahydro-7-hydroxy-2,3-dimethyl-8-phenyl-6-propargyloxy-3H-imidazo[4,5-h]quinoline-5-yl]-carboxylic acid methylamide]
inhibition in vivo at 3 µmol/kg [1]: > 15%

Cc1nc2c3c(c(C(=O)N(C)C)cc2n1C)C(O)[C@H](O)[C@@H](c1ccccc1)N3 (stereo partly drawn) [Example 12, (7R,8R)-[6,7-Dihydroxy-2,3-dimethyl-8-phenyl-6,7,8,9-tetrahydro-3H-imidazo[4,5-h]quinoline-5-yl]carboxylic acid dimethylamide]
inhibition in vivo at 3 µmol/kg [1]: > 15%

CNC(=O)c1cc2c(nc(C)n2C)c2c1[C@H](O)[C@H](O)[C@@H](c1ccccc1)N2 [Example 1, (6S,7R,8R)-[6,7,8,9-Tetrahydro-6,7-dihydroxy-2,3-dimethyl-8-phenyl-3H-imidazo[4,5-h]quinoline-5-yl]-carboxylic acid methylamide]
inhibition in vivo at 3 µmol/kg [1]: > 15%

CNC(=O)c1cc2c(nc(C)n2C)c2c1[C@@H](CC(F)F)[C@@H](O)[C@@H](c1ccccc1)N2 [Example 10, (6R,7R,8R)-[7-Hydroxy-2,3-dimethyl-8-phenyl-6-(2,2-difluoroethyl)-6,7,8,9-tetrahydro-3H-imidazo[4,5-h]quinoline-5-yl]-carboxylic acid methylamide]
inhibition in vivo at 3 µmol/kg [1]: > 15%

CNC(=O)c1cc2c(nc(C)n2C)c2c1[C@@H](O)[C@H](O)[C@@H](c1ccccc1)N2 [Example 2, (6R,7R,8R)-[6,7,8,9-Tetrahydro-6,7-dihydroxy-2,3-dimethyl-8-phenyl-3H-imidazo[4,5-h]quinoline-5-yl]-carboxylic acid methylamide]
inhibition in vivo at 3 µmol/kg [1]: > 15%

CCCCO[C@@H]1c2c(C(=O)NC)cc3c(nc(C)n3C)c2N[C@H](c2ccccc2)[C@H]1O [Example 4, (6R,7R,8R)-[6-n-butyloxy-6,7,8,9-tetrahydro-7-hydroxy-2,3-dimethyl-8-phenyl-3H-imidazo[4,5-h]quinoline-5-yl]-carboxylic acid methylamide]
inhibition in vivo at 3 µmol/kg [1]: > 15%

CNC(=O)c1cc2c(nc(C)n2C)c2c1C[C@@H](O)[C@@H](c1ccccc1)N2 [Example 11, (7R,8R)-[7-Hydroxy-2,3-dimethyl-8-phenyl-6,7,8,9-tetrahydro-3H-imidazo[4,5-h]quinoline-5-yl]-carboxylic acid methylamide]
inhibition in vivo at 3 µmol/kg [1]: > 15%
melting point: 265 to 268 °C
